In the test the target is DPP4 (Homo sapiens, UniProt P27487). The test is described as follows: DPP4 activity assay (DPP4 inhibitor screening assay kit, Cayman).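 As to all read-outs here: fluorescence read at excitation 360 nm and emission 460 nm after the enzyme reaction ran 30 min at 37 °C in a 96-well plate.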 It counts as biochemical. Also noted: purchased Cayman Chemical, Ann Arbor, MI, USA. The conditions noted are these: control mean 100.0; for remaining activity at 10 µM: 0.5 h.
The mark [1] stands for this setting: 10 µM, Figure 1A raw data, read-out: DPP4 activity in library screen, Exp 1.
[2] abbreviates: 10 µM, Figure 1A raw data, read-out: DPP4 activity in library screen, Exp 2.
[3] abbreviates: 10 µM, Figure 1A raw data, read-out: DPP4 activity in library screen, Exp 3.
Where [4] appears, read: 10 µM, mean of Exp 1-3, read-out: DPP4 activity in library screen, Mean.

Read-outs that look alike come from different tables or passages of the source.

Sequence of DPP4 (P27487 whole entry): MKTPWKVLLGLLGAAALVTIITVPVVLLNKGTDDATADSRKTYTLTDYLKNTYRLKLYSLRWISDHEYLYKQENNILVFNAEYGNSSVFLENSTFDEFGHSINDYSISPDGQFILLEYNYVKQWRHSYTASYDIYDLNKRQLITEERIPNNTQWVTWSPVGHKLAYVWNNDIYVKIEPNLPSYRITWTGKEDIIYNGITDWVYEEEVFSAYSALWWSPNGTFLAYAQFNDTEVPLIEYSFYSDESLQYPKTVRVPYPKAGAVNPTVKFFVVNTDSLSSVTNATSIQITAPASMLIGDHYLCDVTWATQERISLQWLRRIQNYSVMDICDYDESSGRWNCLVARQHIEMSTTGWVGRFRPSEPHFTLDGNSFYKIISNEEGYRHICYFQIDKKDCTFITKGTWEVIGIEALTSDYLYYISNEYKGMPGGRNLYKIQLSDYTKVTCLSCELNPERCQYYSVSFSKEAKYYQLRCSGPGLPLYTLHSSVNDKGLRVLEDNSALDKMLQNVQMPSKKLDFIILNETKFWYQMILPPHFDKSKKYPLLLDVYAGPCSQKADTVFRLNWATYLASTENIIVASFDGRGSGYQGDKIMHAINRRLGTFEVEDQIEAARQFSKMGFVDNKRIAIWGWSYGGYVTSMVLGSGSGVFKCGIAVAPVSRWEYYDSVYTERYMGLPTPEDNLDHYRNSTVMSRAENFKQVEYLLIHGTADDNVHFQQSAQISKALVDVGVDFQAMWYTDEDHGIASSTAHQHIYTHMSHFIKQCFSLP

Consider `O=C1C[C@@H](c2ccc(O)cc2)Oc2cc(O)cc(O)c21` [Naringenin], for which the remaining activity at 10 µM by setting is: under setting [1], 80.4%; under setting [2], 87.5%; under setting [3], 94.1%; under setting [4], 87.3%.
With `C[C@@H]1O[C@@H](O[C@H]2[C@H](Oc3cc(O)c(C(=O)CCc4ccc(O)cc4)c(O)c3)O[C@H](CO)[C@@H](O)[C@@H]2O)[C@H](O)[C@H](O)[C@H]1O` [Naringin Dihydrochalcone], under “10 µM, Figure 1A raw data”, the “DPP4 activity in library screen, Exp 1” value was determined as 84.3; the “DPP4 activity in library screen, Exp 2” value worked out at 82.4; the “DPP4 activity in library screen, Exp 3” value turned out to be 91.6. Besides, the “DPP4 activity in library screen, Mean” value (10 µM, mean of Exp 1-3) is on record as 86.1.
In the case of `C[C@@H]1O[C@@H](O[C@H]2[C@H](Oc3cc(O)c4c(c3)O[C@H](c3ccc(O)cc3)CC4=O)O[C@H](CO)[C@@H](O)[C@@H]2O)[C@H](O)[C@H](O)[C@H]1O` [Naringin], the remaining activity at 10 µM came to 116% under setting [1], 82.6% under setting [2], 68.6% under setting [3] and 89.2% under setting [4].
The matching figures for `COc1ccc(CCC(=O)c2c(O)cc(O[C@@H]3O[C@H](CO)[C@@H](O)[C@H](O)[C@H]3O[C@@H]3O[C@@H](C)[C@H](O)[C@@H](O)[C@H]3O)cc2O)cc1O` [Neohesperidin dihydrochalcone (Nhdc), Neohesperidin dihydrochalcone]: 90.3%, 78%, 91.2% and 86.5%.
For `COc1ccc([C@@H]2CC(=O)c3c(O)cc(O[C@@H]4O[C@H](CO)[C@@H](O)[C@H](O)[C@H]4O[C@@H]4O[C@@H](C)[C@H](O)[C@@H](O)[C@H]4O)cc3O2)cc1O` [Neohesperidin], under “10 µM, Figure 1A raw data”, the “DPP4 activity in library screen, Exp 1” value is recorded as 93.8; the “DPP4 activity in library screen, Exp 2” value turned out to be 90.3; the “DPP4 activity in library screen, Exp 3” value was 71.8. The “DPP4 activity in library screen, Mean” value (10 µM, mean of Exp 1-3) is 85.3.
Regarding `COc1ccc(-c2cc(=O)c3c(OC)c(OC)c(OC)c(OC)c3o2)cc1OC` [Nobiletin], the remaining activity at 10 µM by setting is: under setting [1], 81.7%; under setting [2], 69.9%; under setting [3], 67.6%; under setting [4], 73.1%.
In the case of `COc1cc2c(cc1O)C[C@@H]1NCCc3cc(OC)c(O)c-2c31` [Norisoboldine], under “10 µM, Figure 1A raw data”, the “DPP4 activity in library screen, Exp 1” value worked out at 95.3; the “DPP4 activity in library screen, Exp 2” value came out at 99.3; the “DPP4 activity in library screen, Exp 3” value is recorded as 71. For the same compound, the “DPP4 activity in library screen, Mean” value (10 µM, mean of Exp 1-3) came to 88.5.
For the compound `Cc1c(C(=O)NCCO)[n+]([O-])c2ccccc2[n+]1[O-]` [Olaquindox], the remaining activity at 10 µM reads like this: under setting [1], 77.8%; under setting [2], 99.1%; under setting [3], 116%; under setting [4], 97.8%.
In the same order, the values of `C/C=C1/[C@H](O[C@@H]2O[C@H](CO)[C@@H](O)[C@H](O)[C@H]2O)OC=C(C(=O)OC)[C@H]1CC(=O)OCCc1ccc(O)c(O)c1` [Oleuropein] are 117%, 101%, 93.4% and 104%.
The matching figures for `C=C1C(=O)[C@]23[C@H](O)[C@H]1CC[C@H]2[C@@]12CO[C@]3(O)[C@@H](O)[C@@H]1C(C)(C)CC[C@@H]2O` [Oridonin]: 81%, 85.4%, 96.9% and 87.8%.
The matching figures for `O=C(O)c1cc(=O)[nH]c(=O)[nH]1` [Orotic acid (6-Carboxyuracil), Orotic acid]: 83.5%, 88%, 95.5% and 89%.
On to `COc1ccc2ccc(=O)oc2c1CC=C(C)C` [Osthole], for which the remaining activity at 10 µM was determined as 93.1% under setting [1], 95.2% under setting [2], 87.3% under setting [3] and 91.9% under setting [4].
In the same order, the values of `O=C1CCC[C@@H]2[C@H]3CCC[N+]4([O-])CCC[C@@H](CN12)[C@@H]34` (stereo partly drawn) [Oxymatrine] are 106%, 103%, 83.7% and 97.6%.
The matching figures for `COc1ccc(C(C)=O)c(O)c1` [Paeonol]: 80.3%, 92.8%, 99.9% and 91%.
For the compound `COc1cc2c(cc1OC)-c1cc3ccc(OC)c(OC)c3c[n+]1CC2` [Palmatine chloride], the remaining activity at 10 µM (read-out: DPP4 activity in library screen, Exp 1, 10 µM, Figure 1A raw data) stood at 49.5%; the remaining activity at 10 µM (read-out: DPP4 activity in library screen, Exp 2, 10 µM, Figure 1A raw data) was 48.9%; the remaining activity at 10 µM (read-out: DPP4 activity in library screen, Exp 3, 10 µM, Figure 1A raw data) stood at 43.9%; the remaining activity at 10 µM (read-out: DPP4 activity in library screen, Mean, 10 µM, mean of Exp 1-3) turned out to be 47.4%.
For the compound `O=C(CCc1ccc(O)cc1)c1c(O)cc(O)cc1O` [Phloretin], the remaining activity at 10 µM runs as follows: under setting [1], 78.9%; under setting [2], 90.5%; under setting [3], 55.2%; under setting [4], 74.9%.
The matching figures for `O=C(CCc1ccc(O)cc1)c1c(O)cc(O)cc1O[C@@H]1O[C@H](CO)[C@@H](O)[C@H](O)[C@H]1O` [Phlorizin]: 63.2%, 86.5%, 114% and 87.8%.
In the same order, the values of `O=C(/C=C/C=C/c1ccc2c(c1)OCO2)N1CCCCC1` [Piperine] are 67.7%, 60.2%, 77.8% and 68.6%.
The matching figures for `OC[C@H]1O[C@@H](Oc2cc(O)cc(/C=C/c3ccc(O)cc3)c2)[C@H](O)[C@@H](O)[C@@H]1O` [Polydatin]: 89.6%, 81.3%, 70% and 80.3%.
For `O=c1c(-c2ccc(O)cc2)coc2c([C@@H]3O[C@H](CO)[C@@H](O)[C@H](O)[C@H]3O)c(O)ccc12` [Puerarin], the remaining activity at 10 µM under setting [1] is 94.4%, the remaining activity at 10 µM under setting [2] is 98%, the remaining activity at 10 µM under setting [3] amounted to 93.8% and the remaining activity at 10 µM under setting [4] turned out to be 95.4%.
In the case of `O=c1c(O)c(-c2ccc(O)c(O)c2)oc2cc(O)cc(O)c12` [Quercetin Dihydrate], under “10 µM, Figure 1A raw data”, the “DPP4 activity in library screen, Exp 1” value is recorded as 59.9; the “DPP4 activity in library screen, Exp 2” value is reported as 57; the “DPP4 activity in library screen, Exp 3” value turned out to be 57.1. Where the note is “10 µM, mean of Exp 1-3”, the “DPP4 activity in library screen, Mean” value came out at 58.0.
For `O=c1c(O)c(-c2ccc(O)c(O)c2)oc2cc(O)cc(O)c12` [Quercetin], the remaining activity at 10 µM was 62.7% under setting [1], 62.1% under setting [2], 72.1% under setting [3] and 65.6% under setting [4].
The matching figures for `COc1ccc([C@@]23Oc4cc(OC)cc(OC)c4[C@]2(O)[C@H](O)[C@H](C(=O)N(C)C)[C@H]3c2ccccc2)cc1` [Rocaglamide]: 100%, 100%, 94.9% and 98.5%.
For `COc1cc2c(cc1OC)[C@@H]1Cc3ccc(OC)c(OC)c3CN1CC2` [Rotundine], the remaining activity at 10 µM runs as follows: under setting [1], 103%; under setting [2], 99.8%; under setting [3], 104%; under setting [4], 102%.
Consider `O=c1c2ccccc2nc2n1CCc1c-2[nH]c2ccccc12` [Rutaecarpine], for which the remaining activity at 10 µM is 71.3% under setting [1], 78.6% under setting [2], 71.4% under setting [3] and 73.8% under setting [4].
In the same order, the values of `C[C@@H]1O[C@@H](OC[C@H]2O[C@@H](Oc3c(-c4ccc(O)c(O)c4)oc4cc(O)cc(O)c4c3=O)[C@H](O)[C@@H](O)[C@@H]2O)[C@H](O)[C@H](O)[C@H]1O` [Rutin] are 78.7%, 73.8%, 50.1% and 67.5%.
The matching figures for `C[C@H](NCc1ccc(OCc2cccc(F)c2)cc1)C(N)=O` [Safinamide]: 93.4%, 98.3%, 118% and 103%.
The matching figures for `OCc1ccccc1O[C@@H]1O[C@H](CO)[C@@H](O)[C@H](O)[C@H]1O` [Salicin]: 72%, 94.5%, 87.9% and 84.8%.
`OC[C@H]1O[C@@H](OCCc2ccc(O)cc2)[C@H](O)[C@@H](O)[C@@H]1O` [Salidroside]: the remaining activity at 10 µM was determined as 97.1% under setting [1], 97.1% under setting [2], 113% under setting [3] and 102% under setting [4].
`C=C[C@](C)(O)CC[C@@H]1[C@@]2(C)CCCC(C)(C)[C@@H]2CC[C@@]1(C)O` [Sclareol]: the remaining activity at 10 µM reads like this: under setting [1], 80.9%; under setting [2], 99.9%; under setting [3], 71.4%; under setting [4], 84.1%.

The record behind these values is PMC5428354, “Screening of a natural compound library identifies emodin, a natural compound from Rheum palmatum Linn that inhibits DPP4” (PeerJ, 2017).
